Source: the supplement of paper PMC11061612

Key:
Assay in all cases: Bliss excess, mean over the matrix (fraction); higher = more synergy
[1] = system: K5 (Thyroid Gland Carcinoma)
Summary of the method: (§1)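 Bliss excess equals the observed combination effect minus the expected value EA + EB − EA·EB, where EA and EB are the effects of each agent alone. Combination Emax is the second-highest inhibition within the matrix. Inhibition was scaled from CellTiter-Glo 2.0 luminescence, with 0 set by vehicle wells and 1 by blank wells, after 72 hours of two-drug dosing of cells plated in 1536-well plates.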

[2] = system: LoVo (Colorectal Carcinoma)
Summary of the method: as §1

NCI-H28 (Mesothelioma) = system: NCI-H28 (Mesothelioma)
Summary of the method: as §1

[3] = system: SW1271 (Small Cell Lung Carcinoma)
Summary of the method: as §1

[4] = system: SK-OV-3 (Ovarian Carcinoma)
Summary of the method: as §1

[5] = system: RPMI-6666 (Non-Cancerous)
Summary of the method: as §1

[6] = system: NCI-H69 (Small Cell Lung Carcinoma)
Summary of the method: as §1

[7] = system: OVCAR-8 (Ovarian Carcinoma)
Summary of the method: as §1

[8] = system: HO-1-u-1 (Oral Cavity Carcinoma)
Summary of the method: as §1

SH-4 (Melanoma) = system: SH-4 (Melanoma)
Summary of the method: as §1

NCI-H2461 (Mesothelioma) = system: NCI-H2461 (Mesothelioma)
Summary of the method: as §1

[9] = system: 639-V (Bladder Carcinoma)
Summary of the method: as §1

HMV-II (Melanoma) = system: HMV-II (Melanoma)
Summary of the method: as §1

[10] = system: PCI-30 (Head and Neck Carcinoma)
Summary of the method: as §1

[11] = system: EN (Endometrial Carcinoma)
Summary of the method: as §1

Mewo (Melanoma) = system: Mewo (Melanoma)
Summary of the method: as §1

[12] = system: HARA (Squamous Cell Lung Carcinoma)
Summary of the method: as §1

NB14 (Neuroblastoma) = system: NB14 (Neuroblastoma)
Summary of the method: as §1

NCI-H2795 (Mesothelioma) = system: NCI-H2795 (Mesothelioma)
Summary of the method: as §1

In the case of `Cn1cnc2c(F)c(Nc3ccc(Br)cc3Cl)c(C(=O)NOCCO)cc21` [Selumetinib] + C[C@@H]1COCCN1C2=NC(=NC(=C2)C3(CC3)[S@](=N)(=O)C)C4=C5C=CNC5=NC=C4 [AZD6738] (first compound max 10 µM, 7x7, partner max 10 µM), the Bliss excess [1] is reported as 0.045, the Bliss excess [2] is reported as -0.0381 and the Bliss excess (NCI-H28 (Mesothelioma)) is reported as -0.0096. The Bliss excess [3] was 0.0072, the Bliss excess [4] was -0.0424 and the Bliss excess [5] was -0.0157. The Bliss excess [6] was -0.0686, the Bliss excess [7] was -0.0197 and the Bliss excess [8] was 0.014. It also gave a Bliss excess (SH-4 (Melanoma)) of -0.0145, a Bliss excess (NCI-H2461 (Mesothelioma)) of -0.026 and a Bliss excess [9] of 0.0585. The Bliss excess (HMV-II (Melanoma)) was -0.0384, the Bliss excess [10] was -0.0327 and the Bliss excess [11] was -0.0228. For the same compound, the Bliss excess (Mewo (Melanoma)) was -0.0236, the Bliss excess [12] was -0.0115 and the Bliss excess (NB14 (Neuroblastoma)) was -0.0232. It also gave a Bliss excess (NCI-H2795 (Mesothelioma)) of -0.0239.
Compound `CC(=O)c1c(C)c2cnc(Nc3ccc(N4CCNCC4)cn3)nc2n(C2CCCC2)c1=O` [Palbociclib] + CC1(C)CCC(CN2CCN(c3ccc(C(=O)NS(=O)(=O)c4ccc(NCC5CCOCC5)c([N+](=O)[O-])c4)c(Oc4cnc5[nH]ccc5c4)c3)CC2)=C(c2ccc(Cl)cc2)C1 [Venetoclax] (first compound max 10 µM, 7x7, partner max 1 µM) has a Bliss excess [1] of 0.0216, a Bliss excess [2] of -0.0178 and a Bliss excess (NCI-H28 (Mesothelioma)) of -0.0169. For the same compound, the Bliss excess [3] was -0.0513, the Bliss excess [4] was -0.0531 and the Bliss excess [5] was -0.0674. The Bliss excess [6] was -0.0624, the Bliss excess [7] was -0.0167 and the Bliss excess [8] was -0.0121. It also gave a Bliss excess (SH-4 (Melanoma)) of -0.0734, a Bliss excess (NCI-H2461 (Mesothelioma)) of -0.0712 and a Bliss excess [9] of -0.0686. The Bliss excess (HMV-II (Melanoma)) was -0.0895, the Bliss excess [10] was -0.0216 and the Bliss excess [11] was -0.0405. It also gave a Bliss excess (Mewo (Melanoma)) of -0.0235, a Bliss excess [12] of 0.0119 and a Bliss excess (NB14 (Neuroblastoma)) of -0.0103. The Bliss excess (NCI-H2795 (Mesothelioma)) was -0.0365.
For `Cn1cnc2c(F)c(Nc3ccc(Br)cc3Cl)c(C(=O)NOCCO)cc21` [Selumetinib] + CC(C)n1c(=O)n(C)c2cnc3cc(F)c(-c4ccc(OCCCN5CCCCC5)nc4)cc3c21 [AZD1390] (first compound max 10 µM, 7x7, partner max 0.3 µM), the Bliss excess [1] was -0.021, the Bliss excess [2] was -0.0325 and the Bliss excess (NCI-H28 (Mesothelioma)) was -0.0403. It also gave a Bliss excess [3] of 0.0379, a Bliss excess [4] of -0.0088 and a Bliss excess [5] of -0.0234. It also gave a Bliss excess [6] of -0.0305, a Bliss excess [7] of -0.0254 and a Bliss excess [8] of -0.0387. It also gave a Bliss excess (SH-4 (Melanoma)) of -0.0993, a Bliss excess (NCI-H2461 (Mesothelioma)) of -0.0377 and a Bliss excess [9] of -0.0783. It also gave a Bliss excess (HMV-II (Melanoma)) of -0.0262, a Bliss excess [10] of -0.0208 and a Bliss excess [11] of -0.0086. The Bliss excess (Mewo (Melanoma)) was -0.0086, the Bliss excess [12] was -0.0159 and the Bliss excess (NB14 (Neuroblastoma)) was 0.0021. It also gave a Bliss excess (NCI-H2795 (Mesothelioma)) of -0.0439.
Compound `COc1nnc2ccc(N3CCC(c4ccc(OCCN5CCN(C)C(=O)[C@H]5C)cc4)CC3)nn12` [AZD5153] + C=CCn1c(=O)c2cnc(Nc3ccc(N4CCN(C)CC4)cc3)nc2n1-c1cccc(C(C)(C)O)n1 [AZD1775] (first compound max 1 µM, partner max 1 µM) has a Bliss excess [1] of -0.0111, a Bliss excess [2] of -0.0349 and a Bliss excess (NCI-H28 (Mesothelioma)) of -0.0562. The Bliss excess [3] was -0.0763, the Bliss excess [4] was -0.0428 and the Bliss excess [5] was -0.0821. The Bliss excess [6] was -0.0303, the Bliss excess [7] was -0.0631 and the Bliss excess [8] was -0.0526. For the same compound, the Bliss excess (SH-4 (Melanoma)) was -0.106, the Bliss excess (NCI-H2461 (Mesothelioma)) was -0.0344 and the Bliss excess [9] was -0.0367. The Bliss excess (HMV-II (Melanoma)) was -0.0783, the Bliss excess [10] was -0.0307 and the Bliss excess [11] was -0.0753. The Bliss excess (Mewo (Melanoma)) was -0.0245, the Bliss excess [12] was -0.0899 and the Bliss excess (NB14 (Neuroblastoma)) was -0.073. It also gave a Bliss excess (NCI-H2795 (Mesothelioma)) of -0.0308.
Work on `COc1nnc2ccc(N3CCC(c4ccc(OCCN5CCN(C)C(=O)[C@H]5C)cc4)CC3)nn12` [AZD5153] + CC1(C)CCC(CN2CCN(c3ccc(C(=O)NS(=O)(=O)c4ccc(NCC5CCOCC5)c([N+](=O)[O-])c4)c(Oc4cnc5[nH]ccc5c4)c3)CC2)=C(c2ccc(Cl)cc2)C1 [Venetoclax] (first compound max 1 µM, 7x7, partner max 1 µM) yielded a Bliss excess [1] of -0.049, a Bliss excess [2] of -0.0378 and a Bliss excess (NCI-H28 (Mesothelioma)) of 0.0174. The Bliss excess [3] was -0.108, the Bliss excess [4] was -0.0371 and the Bliss excess [5] was -0.0153. For the same compound, the Bliss excess [6] was -0.0445, the Bliss excess [7] was 0.0035 and the Bliss excess [8] was -0.0352. It also gave a Bliss excess (SH-4 (Melanoma)) of -0.124, a Bliss excess (NCI-H2461 (Mesothelioma)) of -0.0438 and a Bliss excess [9] of -0.0962. It also gave a Bliss excess (HMV-II (Melanoma)) of -0.0695, a Bliss excess [10] of -0.0894 and a Bliss excess [11] of -0.0567. For the same compound, the Bliss excess (Mewo (Melanoma)) was -0.0605, the Bliss excess [12] was -0.0617 and the Bliss excess (NB14 (Neuroblastoma)) was -0.0109. It also gave a Bliss excess (NCI-H2795 (Mesothelioma)) of -0.041.
With `C[C@@H](c1ccc2nccn2c1)n1nnc2ncc(-c3cnn(C)c3)nc21` [Savolitinib] + Cc1c2c(nn1C)CSCc1cc(n(C)n1)CSc1cc(c3ccccc3c1)OCCCc1c(C(=O)O)n(C)c3c-2c(Cl)ccc13 [AZD5991] (first compound max 1 µM, 7x7, partner max 1 µM) the Bliss excess [1] was -0.0085, the Bliss excess [2] was -0.0331 and the Bliss excess (NCI-H28 (Mesothelioma)) was -0.0643. The Bliss excess [3] was -0.0415, the Bliss excess [4] was -0.0556 and the Bliss excess [5] was -0.0329. For the same compound, the Bliss excess [6] was -0.0269, the Bliss excess [7] was -0.0327 and the Bliss excess [8] was -0.034. The Bliss excess (SH-4 (Melanoma)) was -0.0252, the Bliss excess (NCI-H2461 (Mesothelioma)) was -0.048 and the Bliss excess [9] was -0.111. It also gave a Bliss excess (HMV-II (Melanoma)) of -0.0404, a Bliss excess [10] of -0.0878 and a Bliss excess [11] of -0.0027. It also gave a Bliss excess (Mewo (Melanoma)) of -0.0237, a Bliss excess [12] of -0.0353 and a Bliss excess (NB14 (Neuroblastoma)) of -0.0411. It also gave a Bliss excess (NCI-H2795 (Mesothelioma)) of 0.008.
Compound `NC1(C(=O)N[C@@H](CCO)c2ccc(Cl)cc2)CCN(c2ncnc3[nH]ccc23)CC1` [Capivasertib] + COc1nnc2ccc(N3CCC(c4ccc(OCCN5CCN(C)C(=O)[C@H]5C)cc4)CC3)nn12 [AZD5153] (first compound max 10 µM, 7x7, partner max 1 µM) has a Bliss excess [1] of 0.0159, a Bliss excess [2] of 0.042 and a Bliss excess (NCI-H28 (Mesothelioma)) of -0.062. For the same compound, the Bliss excess [3] was 0.0529, the Bliss excess [4] was -0.0193 and the Bliss excess [5] was -0.0305. For the same compound, the Bliss excess [6] was 0.019, the Bliss excess [7] was 0.0505 and the Bliss excess [8] was 0.0041. It also gave a Bliss excess (SH-4 (Melanoma)) of -0.0171, a Bliss excess (NCI-H2461 (Mesothelioma)) of -0.0007 and a Bliss excess [9] of 0.0409. The Bliss excess (HMV-II (Melanoma)) was 0.014, the Bliss excess [10] was 0.0406 and the Bliss excess [11] was 0.0304. For the same compound, the Bliss excess (Mewo (Melanoma)) was -0.0532, the Bliss excess [12] was -0.0019 and the Bliss excess (NB14 (Neuroblastoma)) was -0.0216. The Bliss excess (NCI-H2795 (Mesothelioma)) was -0.0197.
With `NC1(C(=O)N[C@@H](CCO)c2ccc(Cl)cc2)CCN(c2ncnc3[nH]ccc23)CC1` [Capivasertib] + CC(C)n1c(=O)n(C)c2cnc3cc(F)c(-c4ccc(OCCCN5CCCCC5)nc4)cc3c21 [AZD1390] (first compound max 10 µM, 7x7, partner max 0.3 µM) the Bliss excess [1] was -0.0539, the Bliss excess [2] was -0.043 and the Bliss excess (NCI-H28 (Mesothelioma)) was -0.0776. The Bliss excess [3] was -0.0347, the Bliss excess [4] was -0.0754 and the Bliss excess [5] was -0.08. For the same compound, the Bliss excess [6] was -0.0793, the Bliss excess [7] was -0.0304 and the Bliss excess [8] was -0.0332. For the same compound, the Bliss excess (SH-4 (Melanoma)) was -0.0856, the Bliss excess (NCI-H2461 (Mesothelioma)) was -0.0579 and the Bliss excess [9] was -0.0376. It also gave a Bliss excess (HMV-II (Melanoma)) of -0.0435, a Bliss excess [10] of -0.0488 and a Bliss excess [11] of -0.0625. The Bliss excess (Mewo (Melanoma)) was -0.0597, the Bliss excess [12] was -0.0216 and the Bliss excess (NB14 (Neuroblastoma)) was -0.0269. For the same compound, the Bliss excess (NCI-H2795 (Mesothelioma)) was -0.0483.
